# Experimental data as given in article PMC6332255, “Evaluation of the Cytotoxicity of α-Cyclodextrin Derivatives on the Caco-2 Cell Line and Human Erythrocytes” (Molecules, 2015).
# How the values were obtained:
# Caco-2 cells [1] = assay: MTT cell viability assay on Caco-2 cells; assay type: cell-based, human; settings: for IC50: 30 min incubation at 37 °C in PBS, mean ± SD; for concentration up to which no toxic effect (MTT): 30 min
# Method: (§1) Caco-2 cell line was obtained from the European Collection of Cell Cultures (ECACC). Cells were grown in plastic cell culture flasks in Dulbecco’s Modified Eagle’s Medium supplemented with 3.7 g/L NaHCO3, 10% (v/v) heat-inactivated fetal bovine serum (FBS), 1% (v/v) non-essential amino acids solution, 1% (v/v) L-glutamine, 100 IU/mL penicillin, and 100 µg/mL streptomycin at 37 °C in an atmosphere of 5% CO2. The cells were routinely maintained by regular passaging. For cytotoxic and transport experiments, cells were used between passage numbers 20 and 40. The culture media were replaced with fresh media in every 72 h.
# The MTT assay was performed on Caco-2 cells. The cells were seeded in 96 well plates until the cell monolayer become confluent. The medium was changed once. After one week the medium was removed, the cells were washed with PBS and exposed to increasing concentrations of α-CDs dissolved in phosphate buffer saline (PBS). Cells were incubated for 30 min on 37 °C. Control groups were processed equally and incubated without CD simultaneously. After treatment MTT dye (3-(4,5-dimethylthiazol-2-yl))-2,5-diphenyltetrazolium bromide, 5 mg/mL) was applied to each well for 3 h. MTT solution was removed and isopropanol-hydrochloric acid (25:1) was added to dissolve the formed formazan crystals. The absorbance was measured at 570 nm against a 690 nm reference with a FLUOstar OPTIMA Microplate Reader. Cell viability was expressed as the percentage of untreated control.
# human erythrocytes = assay: Hemolysis test on human red blood cells; assay type: cell-based; settings: for HC50: PBS pH 7.2, 37 °C, mean ± SD; for HC50 / concentration up to which not hemolytic: 10 min
# Method: Hemolysis test was performed on fresh human blood. Erythrocytes were separated from citrated blood by centrifugation at 2500× g for 10 min.; washed three times with PBS and resuspended in the same solution. Aliquots of the cell suspension with the respective red blood cell number of 5 × 10^7 were added to the buffer solution (PBS pH 7.2) containing increasing concentrations of the samples investigated in the study. After mixing them gently, each solution was incubated at 37 °C for 10 min and then centrifuged at 5000× g. Finally, the absorbance of the hemoglobin released into the supernatant was measured at 540 nm with a FLUOstar OPTIMA Microplate Reader. The percentage of hemolysis was expressed as the ratio of hemoglobin in the supernatant of the sample solutions related to the hemoglobin concentration after the complete hemolysis of erythrocytes in water. The dose-response curve was determined, and the concentration inducing hemolysis in 50% of the erythrocyte population (HC50) was subsequently calculated.
# Caco-2 cells [2] = assay: Real-time cell electronic sensing (RT-CES) on Caco-2 cells; assay type: cell-based, human; settings: for IC50: up to 8 h treatment, impedance cell index; for toxicity by RT-CES, result in words: prolonged exposition time (up to 8 h) versus 30 min MTT; for concentration up to which non-toxic (RT-CES): up to 8 h
# Method: as §1
# Real-time cell electronic sensing (RT-CES) is a label-free technique for dynamic monitoring of living cells. The xCELLigence system (Roche, Basel, Switzerland) utilizes an electronic readout called impedance to non-invasively quantify adherence cell proliferation and viability. E-plates (Roche) contain gold microelectronic sensor arrays. The interaction between cells and the electrode generates impedance response that correlates linearly with cell index reflecting cell number, adherence and cell growth. This method is more sensitive and informative than colorimetric end-point assays to test pharmaceutical excipients.
# The E-plate was coated with 0.2% rat tail collagen–DW solution for 20 min at 37 °C. Culture media (60 μL) was added to each well for background readings than 100 µL Caco-2 cell suspension was dispensed at the density of 1.5 × 10^4 cells/well. The cells were grown for 2 days. The medium was changed to excipients solutions and the cells in the E-plate were kept in an incubator at 37 °C for 8 h and monitored every 5 min.
# The cell index at each time point was defined as (Rn − Rb)/15, where Rn is the cell-electrode impedance of the well when it contains cells and Rb is the background impedance of the well with the media alone.
# [3] = Solubility of the samples in isotonic PBS; assay type: physicochemical; settings: isotonic phosphate buffered saline (PBS)
# Method: α-Cyclodextrin derivatives were generously offered by Cyclolab Ltd. (Cyclodextrin Research & Development Laboratory, Budapest, Hungary). […] We investigated each α-CD in 7 different concentrations: 0.01; 0.1; 1; 10; 25; 50 and 100 mM, with the exception of TRIMEA, which was not soluble above 30 mM. The solid samples were dissolved in isotonic phosphate buffered saline (PBS), purchased from Sigma–Aldrich (Budapest, Hungary) (Table 2.)
IC50 (Caco-2 cells [1]) [mM],IC50 (Caco-2 cells [2]) [mM],Compound,HC50 (human erythrocytes) [mM],concentration up to which no toxic effect (MTT) (Caco-2 cells [1]) [mM],also measured
78.6 ± 15.8,,randomly methylated α-CD [RAMEA],15.5 ± 0.01,,
,,"OC[C@H]1O[C@@H]2O[C@H]3[C@H](O)[C@@H](O)[C@@H](O[C@H]4[C@H](O)[C@@H](O)[C@@H](O[C@H]5[C@H](O)[C@@H](O)[C@@H](O[C@H]6[C@H](O)[C@@H](O)[C@@H](O[C@H]7[C@H](O)[C@@H](O)[C@@H](O[C@H]1[C@H](O)[C@H]2O)O[C@@H]7CO)O[C@@H]6CO)O[C@@H]5CO)O[C@@H]4CO)O[C@@H]3CO [native, α-cyclodextrin]",16.0 ± 0.02,,"IC50 (Caco-2 cells [1]; Homo sapiens, 0.5 h): 46.1 ± 9.2 mM; IC50 (Caco-2 cells [2]; Homo sapiens): > 25 mM; HC50 (human erythrocytes; listed as Native α-CD): 16 mM"
19 ± 8.8,> 1,succinylated α-CD [SuACD],9.6 ± 0.03,,
1.8 ± 0.8,> 1,"COC[C@H]1O[C@@H]2O[C@@H]3[C@@H](OC)[C@@H](OC)[C@@H](O[C@@H]4[C@@H](OC)[C@@H](OC)[C@@H](O[C@@H]5[C@@H](OC)[C@@H](OC)[C@@H](O[C@@H]6[C@@H](OC)[C@@H](OC)[C@@H](O[C@@H]7[C@@H](OC)[C@@H](OC)[C@@H](O[C@@H]1[C@@H](OC)[C@H]2OC)O[C@@H]7COC)O[C@@H]6COC)O[C@@H]5COC)O[C@@H]4COC)O[C@@H]3COC [TRIMEA, hexakis-(2,3,6-tri-O-methyl)-α-CD]",1.9 ± 0.01,,solubility limit [3]: ≤ 30 mM
> 100,,carboxymethylated α-CD sodium salt [CMACD],>100,> 100,"toxicity by RT-CES, result in words (Caco-2 cells [2]): toxic when the exposition time was prolonged; HC50 (human erythrocytes; listed as carboxymethylated): > 100 mM"
7.8 ± 8.6,,phosphated α-CD sodium salt,>100,,"hemolysis, result in words (human erythrocytes): did not result in hemolysis"
> 100,> 100,acetylated α-CD [AcACD],>100,> 100,concentration up to which non-toxic (RT-CES) (Caco-2 cells [2]): > 100 mM; concentration up to which not hemolytic (human erythrocytes): > 100 mM; HC50 (human erythrocytes; listed as acetyl): > 100 mM
> 100,> 100,(2-hydroxy) propyl α-CD [HPACD],>100,> 100,concentration up to which non-toxic (RT-CES) (Caco-2 cells [2]): > 100 mM; concentration up to which not hemolytic (human erythrocytes): > 100 mM; HC50 (human erythrocytes; listed as Hydroxypropyl): > 100 mM
> 100,,sulfated α-CD,>100,> 100,"toxicity by RT-CES, result in words (Caco-2 cells [2]): toxic when the exposition time was prolonged"
